Source: patent publication US20200306313A1, “METHODS AND COMPOSITIONS FOR NON-CYTOTOXIC STEM CELL TRANSPLANTATION” (THE BOARD OF REGENTS OF THE UNIVERSITY OF TEXAS SYSTEM, priority 2014, published 2020)

How the values were obtained:
[1] = without irradiation and chemotherapy; cited from earlier work
MitoPark™ mice = assay: Spontaneous locomotor activity of MitoPark mice; format: in vivo
From the text: Vertical movements declined earlier and faster than horizontal movements (data not shown), modeling the early occurrence of axial postural instability in PD. […] The MitoPark™ mice began to lose weight from ˜20 weeks and died at 29-33 weeks of age, at which point the majority of substantia nigra DA neurons had been lost.

[2] = test system: TH-positive neurons in the SNpc; assay: Stereology of TH-positive neurons in SNpc after MPTP; conditions: MPTP-alone regimen
Protocol: (§1) Eight weeks after transplantation, recipient mice were injected with MPTP to induce dopaminergic neurodegeneration. MPTP dissolved in saline was injected subcutaneously into MSP-GDNF and MSP-GFP mice as follows: 15 mg/kg free base MPTP on day 1, 25 mg/kg on day 2, and 30 mg/kg on days 3-7. Control mice were treated with saline following the same regimen. Nine weeks after the last injection of MPTP or saline, MSP-GFP mice were sacrificed to evaluate the differentiation of gene-modified macrophages into microglia and their recruitment to substantia nigra.
Three or nine weeks after the last MPTP or saline injection, recipient mice were sacrificed and the neuroprotective effect of macrophage-mediated GDNF delivery on the nigrostriatal dopaminergic system was assessed by quantitative analysis of TH-positive neurons in the substantia nigra pars compacta (SNpc), as well as the density of TH-positive terminals in the striatum. […] In addition, total number of Nissl-stained neurons in the SNpc was counted for each treatment group to make sure that GDNF treatment indeed prevented actual cell death (FIG. 8).

[3] = test system: substantia nigra microglia; assay: Recruitment of bone marrow-derived microglia to substantia nigra after MPTP; format: in vivo; conditions: MSP-GFP mice nine weeks after the last injection of MPTP
Protocol: as §1

mice = assay: Motor coordination tests in MPTP-only model; format: in vivo; conditions: MPTP-treated group vs saline-treated controls
From the text: MPTP/probenecid mouse model. […] In addition, spontaneous recovery of the nigrostriatal system that is typically observed with this regimen places limits on detection of changes in motor coordination. Mice were subjected to tests for motor coordination, including rotarod test, gait test/foot print analysis, pole test, beam walking test, and grid test.

[4] = test system: TH-positive cells in the SNpc; assay: Continuous MPTP osmotic minipump infusion, TH-positive and GFP cells in SNpc; format: in vivo, mice; conditions: continuous infusion 5 mg MPTP/kg daily for 28 days
Protocol: FIGS. 7A-B. Plots of quantitative stereologic data illustrating TH-positive cells in the SNpc from mice that were continuously treated with saline (n=3) or 5 mg MPTP/kg daily (n=2) for 28 days (FIG. 7A). Semi-quantitative analysis of GFP-positive cells in the nigra of mice that were continuously treated with saline (n=3) or 5 mg MPTP/kg daily (n =2) for 28 days. Each bar represents the mean±standard error of the total number of GFP-positive cells per five representative sections of substantia nigra pars compacta per animal (FIG. 7B).
The minipumps were implanted subcutaneously on the upper back of the animal. The minipumps delivers saline or MPTP at a flow rate 0.35μ1/hr for 28 days. The concentration of MPTP solution was adjusted in such a way that the animals receive or 5 mg MPTP/kg daily for 28 days. On day 30 (after the start of MPTP or saline) the animals were killed and the brains were analyzed for the loss of TH-posive cells and the recruitment bone marrow derived GFP cells in the SNpc.

[5] = cited from earlier work

c1cc(CN2CCCNCCNCCCNCC2)ccc1CN1CCCNCCNCCCNCC1 [AMD3100]
effectiveness as conditioning regimen [1]: not to be sufficiently effective

N[C@@H](Cc1ccc(O)c(O)c1)C(=O)O [L-DOPA]
locomotor deficits (MitoPark™ mice): transiently reversed

CN1CC=C(c2ccccc2)CC1 [MPTP, 1-methyl-4-phenyl-1,2,3,6-tetrahydropyridine]
reduction in TH-positive cells [2]: approximately 50%
proportion of total microglia (Iba1-positive) in the nigra that were bone marrow derived [3]: 47%
motor coordination (rotarod, gait/foot print, pole, beam walking, grid test) (mice): None of these tests showed statistically significant differences
increase in the number of bone marrow derived GFP cells in the SNpc [4]: four-fold
loss of TH-positive cells in the SNpc [4]: approximately 31%

B1: glial cell line derived neurotrophic factor (protein, UniProt P39905 78-211, looked up)
Glial cell line-derived …: SPDKQMAVLPRRERNRQAAAANPENSRGKGRRGQRGKNRGCVLTAIHLNVTDLGLGYETKEELIFRYCSGSCDAAETTYDKILKNLSRNRRLVSDKVGQACCRPIAFDDDLSFLDDNLVYHILRKHSAKRCGCI
side effects ([5]; direct brain infusion): side effects, including allodynia and weight loss
cerebellar toxicity ([5]; high doses (100 μg/day) intraputamenal): significant cerebellar Purkinje cell death
